{"source": "patent US20200172473A1", "about": "“DUAL MODULATORS OF FARNESOID X RECEPTOR AND SOLUBLE EPOXIDE HYDROLASE” (JOHANN WOLFGANG GOETHE-UNIVERSITÄT FRANKFURT AM MAIN, priority 2017, published 2020)", "key": {"[1]": {"system": "PPARγ target genes CD36 and FAM3A", "experiment": "PPARγ target gene mRNA quantification (qRT-PCR) in HepG2 cells", "assay_type": "cell-based", "conditions": "HepG2, 1 μM"}, "[2]": {"system": "PPARγ target gene FATP", "experiment": "PPARγ target gene FATP mRNA quantification from mouse livers", "assay_type": "in vivo", "conditions": "10 mg/kg p.o., 8 h post dose; vehicle 101±1"}, "[3]": {"molecular_target": "T1, PPARγ (Homo sapiens, UniProt P37231)", "T1 construct": "pFA-CMV-hPPARγ-LBD; expressed in transfected cells; host or cells: HEK293T", "T1 sequence (P37231 238-503 limits assumed)": "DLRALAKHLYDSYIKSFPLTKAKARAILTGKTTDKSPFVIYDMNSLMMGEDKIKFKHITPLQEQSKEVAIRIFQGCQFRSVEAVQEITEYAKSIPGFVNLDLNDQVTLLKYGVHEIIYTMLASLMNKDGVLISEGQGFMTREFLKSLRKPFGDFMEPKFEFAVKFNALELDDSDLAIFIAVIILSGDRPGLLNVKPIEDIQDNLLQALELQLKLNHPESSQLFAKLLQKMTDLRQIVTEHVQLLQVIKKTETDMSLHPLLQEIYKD", "experiment": "Gal4-hybrid reporter gene assay PPARγ in HEK293T cells", "assay_type": "cell-based", "description": "(§1) Hybrid reporter gene assays for PPARα/γ/δ, LXRα/β, RXRα/β/γ, RARα/β/γ, VDR and PXR Plasmids: The Gal4-fusion receptor plasmids pFA-CMV-hPPARα-LBD^52, pFA-CMV-hPPARγ-LBD^52, pFA-CMV-hPPARδ-LBD^52, pFA-CMV-hLXRα-LBD^32 and pFA-CMV-hLXRβ-LBD^32 have been reported previously. […] Frame and sequence of all fusion receptors were verified by sequencing. pFR-Luc (Stratagene) was used as reporter plasmid and pRL-SV40 (Promega) for normalization of transfection efficiency and cell growth.\nAssay procedure: HEK293T cells were grown in DMEM high glucose, supplemented with 10% FCS, sodium pyruvate (1 mM), penicillin (100 U/mL) and streptomycin (100 μg/mL) at 37° C. and 5% CO2. The day before transfection, HEK293T cells were seeded in 96-well plates (2.5·10^4 cells/well). Before transfection, medium was changed to Opti-MEM without supplements. Transient transfection was carried out using Lipofectamine LTX reagent (Invitrogen) according to the manufacturer's protocol with pFR-Luc (Stratagene), pRL-SV40 (Promega) and pFA-CMV-hRXRα-LBD. 5 h after transfection, medium was changed to Opti-MEM supplemented with penicillin (100 U/mL), streptomycin (100 μg/mL), now additionally containing 0.1% DMSO and the respective test compound or 0.1% DMSO alone as untreated control. Each concentration was tested in triplicates and each experiment was repeated independently at least three times. […] Luminescence was measured with an Infinite M200 luminometer (Tecan Deutschland GmbH). […] Fold activation was obtained by dividing the mean RLU of a test compound at a respective concentration by the mean RLU of untreated control. Relative activation was obtained by dividing the fold activation of a test compound at a respective concentration by the fold activation of a respective reference agonist at 1 μM (PPARα: GW7647; PPARγ: pioglitazone; PPARδ: L165,041; LXRα/β: T0901317; RXRs: bexarotene; RARs: tretinoin; VDR calcitriol; PXR: SR12813)."}, "[4]": {"system": "related nuclear receptors (PPARs, LXRs, RXRs, RARs, PXR and VDR)", "experiment": "selectivity profile in Gal4-hybrid reporter gene assays (panel statement)", "assay_type": "cell-based, human", "conditions": "except PPARγ", "description": "as §1\nAssay procedure: HEK293T cells were grown in DMEM high glucose, supplemented with 10% FCS, sodium pyruvate (1 mM), penicillin (100 U/mL) and streptomycin (100 μg/mL) at 37° C. and 5% CO2. The day before transfection, HEK293T cells were seeded in 96-well plates (2.5·10^4 cells/well). Before transfection, medium was changed to Opti-MEM without supplements. Transient transfection was carried out using Lipofectamine LTX reagent (Invitrogen) according to the manufacturer's protocol with pFR-Luc (Stratagene), pRL-SV40 (Promega) and pFA-CMV-hRXRα-LBD. 5 h after transfection, medium was changed to Opti-MEM supplemented with penicillin (100 U/mL), streptomycin (100 μg/mL), now additionally containing 0.1% DMSO and the respective test compound or 0.1% DMSO alone as untreated control. […] Luminescence was measured with an Infinite M200 luminometer (Tecan Deutschland GmbH). […]"}, "[5]": {"molecular_target": "T2, recombinant human sEH (Homo sapiens, UniProt P34913)", "T2 sequence (P34913 1-555)": "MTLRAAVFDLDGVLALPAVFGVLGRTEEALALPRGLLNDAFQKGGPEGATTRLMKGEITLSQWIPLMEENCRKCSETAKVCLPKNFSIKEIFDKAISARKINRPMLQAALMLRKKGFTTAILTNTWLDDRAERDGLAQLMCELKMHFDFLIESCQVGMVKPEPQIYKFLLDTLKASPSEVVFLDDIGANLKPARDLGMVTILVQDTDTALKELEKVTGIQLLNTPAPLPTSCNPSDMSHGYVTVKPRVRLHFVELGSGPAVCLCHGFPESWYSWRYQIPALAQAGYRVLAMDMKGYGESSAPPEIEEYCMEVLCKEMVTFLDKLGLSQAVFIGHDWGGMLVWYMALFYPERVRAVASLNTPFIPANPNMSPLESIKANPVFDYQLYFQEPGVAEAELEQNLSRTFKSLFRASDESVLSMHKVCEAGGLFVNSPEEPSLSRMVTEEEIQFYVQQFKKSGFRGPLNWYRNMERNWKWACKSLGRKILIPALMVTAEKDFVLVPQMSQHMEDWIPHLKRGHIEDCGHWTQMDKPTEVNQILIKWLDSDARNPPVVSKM", "experiment": "fluorescence-based sEH activity assay with PHOME substrate", "assay_type": "biochemical", "description": "This assay is based on a reporter construct containing a firefly luciferase under the control of the FXR response element from bile salt export protein (BSEP). FXR and its hetero dimer partner retinoid X receptor (RXR) as expression constructs under the control of a CMV promoter as well as a constitutively expressed renilla luciferase (SV40 promoter) for normalization and toxicity control were co-transfected. […] The sEH inhibitory potency of the test compounds was quantified in a fluorescence-based assay using recombinant enzyme and the fluorogenic sEH substrate PHOME^37 that is hydrolyzed to a fluorescent 6-methoxynaphtaldehyde by sEH.\nThe sEH inhibitory potency of the compounds were determined in a fluorescence-based 96-well sEH activity assay using recombinant human enzyme^50,51. Non-fluorescent PHOME (3-phenylcyano-(6-methoxy-2-naphthalenyl)methyl ester 2-oxiraneacetic acid; Cayman Chemicals) which can be hydrolyzed by the sEH to fluorescent 6-methoxynaphthaldehyde served as substrate. Recombinant human sEH (in Bis-Tris buffer, pH 7, with 0.1 mg/mL BSA containing a final concentration of 0.01% Triton-X 100) was pre-incubated with test compounds (in DMSO, final DMSO concentration: 1%) for 30 min at room temperature. […] A blank control (no protein and no compound) as well as a positive control (no compound) were executed. All experiments were conducted in triplicate and repeated in at least three independent experiments. For IC50 calculation, dose-response curves of increasing compound concentrations were recorded."}}, "note": "Like-named read-outs stand apart in the source and are kept apart here."}
{"smiles": "CC(C)(C)c1ccc(C(=O)NCc2ccc(NS(C)(=O)=O)cc2Cl)cc1", "note": "[compound 57, 4-(tert-Butyl)-N-(2-chloro-4-(methylsulfonamido)benzyl)benzamide]", "values": [{"measurement": "CD36 mRNA expression compared to vehicle set as 100%", "setting": "[1]", "result": "119±33", "unit": "%"}, {"measurement": "FAM3A mRNA expression compared to vehicle set as 100%", "setting": "[1]", "result": "112±12", "unit": "%"}, {"measurement": "FATP mRNA in mouse liver compared to vehicle set as 100%", "setting": "[2]", "result": "not affected"}, {"measurement": "selectivity for FXR amongst nuclear receptors", "setting": "[3]", "result": "≥ 720"}, {"measurement": "PPARγ max. activation", "setting": "[3]; relative to pioglitazone at 1 μM", "result": "30±1", "unit": "%"}, {"measurement": "EC50", "setting": "[3]; weak partial agonism", "result": "14700 ± 900", "unit": "nM"}, {"measurement": "activity on related nuclear receptors", "setting": "[4]", "result": "inactive"}, {"measurement": "IC50", "setting": "[5]; read-out: IC50 for sEH inhibition", "result": "4.1 ± 0.4", "unit": "nM"}, {"measurement": "IC50", "setting": "[5]; recombinant human sEH, PHOME, read-out: sEH inhibition IC50", "result": "4.1 ± 0.4", "unit": "nM"}]}
